Literature values as cited in patent US9107941B2, “Methods and compositions for reducing L-pipecolic acid effects in animals” (SarTec Corporation, priority 2006, dated 2015).

Legend:
chicks = conditions: ICV injection

Compound: O=C(O)[C@@H]1CCCCN1 [L-PIP, L-pipecolic acid]
- apoptosis in neuronal cells (neuronal cells): induce apoptosis
- food intake (chicks): inhibited food intake
- sleep-like behavior (chicks): induced sleep-like behavior
